Results as given in publication PMC11969031, “The homeostasis of β‐alanine is key for Arabidopsis reproductive growth and development” (The Plant Journal, 2025).

How the values were obtained:
[1] = biological target: T1, AGT2_weak (AT4G39660, recombinant) (Arabidopsis thaliana, UniProt Q940M2); experiment: coupled NADH assay at […] nm (pyruvate dehydrogenase); assay type: biochemical; settings: amino donor; 50 μM glyoxylate/2-oxoglutarate/pyruvate, 3 μM enzyme, 50 mM Tris pH 8.0, 30°C; degradation direction only
T1 construct: gene AGT2; first 29 residues (signal peptide) of 476 removed; codon-optimised synthetic gene, pET24a, C-terminal His6; E. coli BL21(DE3); Ni-NTA

[2] = biological target: T2, Col-0-PYD4 (AT3G08860, recombinant) (Arabidopsis thaliana, UniProt Q9SR86); experiment: coupled NADH assay at […] nm (pyruvate or alanine dehydrogenase); assay type: biochemical; settings: 50 mM Tris pH 8.0, 30°C
T2 construct: first 31 residues (signal peptide) removed; codon-optimised synthetic gene, pET24a, C-terminal His6; E. coli BL21(DE3); Ni-NTA
T2 sequence (Q9SR86 32-481): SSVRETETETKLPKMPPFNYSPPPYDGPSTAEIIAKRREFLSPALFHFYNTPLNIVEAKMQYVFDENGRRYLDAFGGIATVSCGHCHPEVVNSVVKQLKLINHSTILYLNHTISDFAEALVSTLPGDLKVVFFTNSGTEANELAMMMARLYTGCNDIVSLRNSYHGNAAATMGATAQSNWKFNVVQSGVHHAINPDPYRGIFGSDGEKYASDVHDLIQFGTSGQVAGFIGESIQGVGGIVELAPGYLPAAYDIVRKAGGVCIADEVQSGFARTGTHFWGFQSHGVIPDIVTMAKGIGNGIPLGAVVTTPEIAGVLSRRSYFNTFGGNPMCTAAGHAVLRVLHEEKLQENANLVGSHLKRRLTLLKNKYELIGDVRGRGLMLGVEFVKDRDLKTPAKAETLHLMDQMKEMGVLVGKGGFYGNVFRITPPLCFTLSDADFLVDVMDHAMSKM

T1 sequence (Q940M2 30-476): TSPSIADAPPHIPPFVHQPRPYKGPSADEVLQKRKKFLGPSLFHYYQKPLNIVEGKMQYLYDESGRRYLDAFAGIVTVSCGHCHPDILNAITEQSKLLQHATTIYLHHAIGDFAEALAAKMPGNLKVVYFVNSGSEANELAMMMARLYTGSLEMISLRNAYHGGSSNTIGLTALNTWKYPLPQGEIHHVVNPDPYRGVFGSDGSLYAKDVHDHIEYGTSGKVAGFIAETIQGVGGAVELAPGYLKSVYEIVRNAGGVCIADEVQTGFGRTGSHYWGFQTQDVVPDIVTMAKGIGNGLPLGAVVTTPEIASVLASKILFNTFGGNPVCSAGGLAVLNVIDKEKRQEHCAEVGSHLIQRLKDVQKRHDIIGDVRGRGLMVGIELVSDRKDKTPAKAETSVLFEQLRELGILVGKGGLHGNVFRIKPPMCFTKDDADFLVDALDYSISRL

| SMILES | coupled NADH assay at 340 nm (pyruvate dehydrogenase) [1] | coupled NADH assay at 340 nm (pyruvate or alanine dehydrogenase) ([2]; amino donor (positive control enzyme; works in both directions)) | coupled NADH assay at 340 nm (pyruvate or alanine dehydrogenase) ([2]; amino donor, acceptor not given) |
| --- | --- | --- | --- |
| C[C@H](N)C(=O)O [L‐alanine] | We also detected activity when L‐alanine was used as the amino donor | activity when L‐alanine was used as the amino donor, but unlike PYD4, AGT2 only functions | – |
| NCCC(=O)O [β‐alanine] | – | – | PYD4 was also able to use β‐alanine as an amino donor |
